Data set [1] concerns the target T1, TSHR (Homo sapiens, UniProt P16473). Kind of data set: inhibition of TSH-mediated cAMP response in HEK-EM 293 cells stably expressing TSHR. Also on record: expressed in transfected cells. Format: cell-based. The method, then:
(§1) Transiently transfected cells were cultured for 48 hours before the cAMP assay. HEK-EM 293 cells stably expressing TSHR, LHCGR or FSHR were seeded into 24-well plates with a density of 2.2×10^5 cells/well 24 hours before the cAMP assay. After removal of growth medium, cells were incubated for 1 hour in HBSS (Cellgro) with 10 mM HEPES (Cellgro) containing 1 mM 3-isobutyl-1-methylxanthine (IBMX) (Sigma) and the ligand of interest in a humidified 5% CO2 incubator at 37° C. The intracellular cAMP content was determined with the cAMP Biotrak Enzymeimmunoassay (EIA) System (GE Healthcare). Data were analyzed using GraphPad Prism 4 for Windows. Receptor expression was measured as described in Jaschke et al., J Biol Chem 281:9841-9844.
The TSH-mediated cAMP response of TSHR was inhibited by a maximum of 70.8±5.5% at 30 μM compound 52. […] Compound 52 has no activity at FSHR.
To exclude the possibility that compound 52 might be acting independently of TSHR by building aggregates with TSH, thereby inhibiting the TSH-induced response, tests were conducted for a possible aggregation between these two ligands. Compound 52 and TSH were preincubated for up to 15 minutes before addition to HEK-EM 293 cells stably expressing TSHR. […] There was no difference in the antagonistic effect whether TSH and compound 52 were preincubated together or not (data not shown) thereby excluding the possibility that its effect was caused by aggregation with TSH.

The target of another data set is T2, human TSH receptor (Homo sapiens, UniProt P16473).
T2 construct: expressed in transfected cells
Kind of data set: intracellular cAMP accumulation, agonism at TSHR stably expressed in HEK EM 293 cells. Format: cell-based. Here is the method: With reference to Table 1, exemplary disclosed compounds were evaluated against human TSH receptor and human LHCG receptor that were stably expressed in HEK 293 EM cells as previously described by Libert et al. (Biochem. Biophys. Res. Commun. 1989, 165, 1250-1255); and by Schulz et al. (Mol. Endocrinol. 1999, 13, 181-190). Cell surface expression of TSH receptor and LHCG receptor were determined via FACS analysis (Kleinau, G.; Jäschke, H.; Neumann, S.; Lättig, S.; Paschke, R.; Krause, G. J. Biol. Chem. 2004, 279, 51590-51600). Agonism of compounds 3-20 were determined via measurement of intracellular cyclic AMP accumulation. […] For example, […] certain compounds disclosed herein exerted no discernible effect on the FSH receptor.
Cells were cultured for 48 h in 24-well plates before incubation for 1 h in serum-free DMEM containing 1 mM 3-isobutyl-1-methylxanthine (IBMX) (SIGMA) and bovine TSH (1.8 μM) (SIGMA) or human LH (1000 ng/ml) (Dr. A. Parlow, NIDDK National Hormone and Pituitary Program) or compounds 3-19 (0-100 μM) in a humidified 5% CO2 incubator. Following aspiration of the medium after incubation with compounds, cells were lysed using lysis buffer 1 of the cAMP Biotrak Enzymeimmunoassay (EIA) System (Amersham Biosciences). The cAMP content of the cell lysate was determined using the manufacturer's protocol. The efficacy of receptor activation by small molecule modulators is expressed as % of maximum response of LHCG receptor or TSH receptor to LH or TSH, respectively. The potency (EC50) was obtained from dose response curves (0-100 μM compound) by data analysis with GraphPad Prism 4 for Windows. With reference to FIG. 1, intracellular cAMP production was determined in response to 100 μM of each compound and is expressed as % of maximum response of TSHR/LHCGR to TSH (100 mU/ml)/LH (1000 ng/ml). The data are presented as mean±SEM of two independent experiments, each performed in duplicate.
as §1

A further data set addresses T3, human LHCG receptor (Homo sapiens, UniProt P22888).
T3 construct: expressed in transfected cells
Kind of data set: intracellular cAMP accumulation, agonism at LHCGR stably expressed in HEK EM 293 cells. In kind it is cell-based. The method, then:
With reference to Table 1, exemplary disclosed compounds were evaluated against human TSH receptor and human LHCG receptor that were stably expressed in HEK 293 EM cells as previously described by Libert et al. (Biochem. Biophys. Res. Commun. 1989, 165, 1250-1255); and by Schulz et al. (Mol. Endocrinol. 1999, 13, 181-190). Cell surface expression of TSH receptor and LHCG receptor were determined via FACS analysis (Kleinau, G.; Jäschke, H.; Neumann, S.; Lättig, S.; Paschke, R.; Krause, G. J. Biol. Chem. 2004, 279, 51590-51600).
Following aspiration of the medium after incubation with compounds, cells were lysed using lysis buffer 1 of the cAMP Biotrak Enzymeimmunoassay (EIA) System (Amersham Biosciences). The cAMP content of the cell lysate was determined using the manufacturer's protocol. […] The potency (EC50) was obtained from dose response curves (0-100 μM compound) by data analysis with GraphPad Prism 4 for Windows. […] The data are presented as mean±SEM of two independent experiments, each performed in duplicate.
as §1

Another data set deals with TSHR mutant M9. Kind of data set: cAMP production in HEK-EM 293 cells transiently expressing TSHR mutant M9. Format: cell-based, human. The method, then: HEK-EM 293 cells were grown in Dulbecco's modified Eagle's Medium (DMEM) supplemented with 10% fetal bovine serum, 100 units/ml penicillin and 10 μg/ml streptomycin (Life Technologies Inc.) at 37° C. in a humidified 5% CO2 incubator. Cells were transiently transfected with wild type TSHR and mutant receptors in 24-well plates (7.5×10^4 cells per well) with 0.4 μg DNA/well using FuGENE™ 6 reagent (Roche) according to the manufacturer's protocol.
The M9 mutant is described in Jaschke et al., J Biol Chem 281:9841-9844. The Y7.42A mutant was introduced into hTSHR-pcDNA3.1 via the QuickChange XL Site-Directed Mutagenesis kit (Stratagene). The construct was verified by sequencing (MWG Biotech).
Transiently transfected cells were cultured for 48 hours before the cAMP assay. HEK-EM 293 cells stably expressing TSHR, LHCGR or FSHR were seeded into 24-well plates with a density of 2.2×10^5 cells/well 24 hours before the cAMP assay. […] The intracellular cAMP content was determined with the cAMP Biotrak Enzymeimmunoassay (EIA) System (GE Healthcare). Data were analyzed using GraphPad Prism 4 for Windows. Receptor expression was measured as described in Jaschke et al., J Biol Chem 281:9841-9844.
(cAMP levels reflect the balance of adenylyl cyclase and phosphodiesterase activity.)

A further data set deals with LHCG receptor (Mus musculus, UniProt P30730). The note with it: ovulation induction model; cited from earlier work.
Data set [2] concerns the target T1, TSHR. Kind of data set: TsAb (Graves' disease sera)-stimulated cAMP accumulation in HEK-EM 293 cells expressing TSHR. Format: cell-based. Set-up: expressed in transfected cells. The method, then: as §1
To assess the therapeutic potential of compound 52 in patients with Graves' disease, its ability to inhibit TSHR activation by TsAbs was tested. First, four patient sera (GD 5, 19, 29, 30) were used at a dilution of 1:50 to test the effect of compound 52 on TsAb-stimulated cAMP accumulation in HEK-EM 293 cells expressing TSHR. All four sera increased cAMP accumulation, but to different extents (FIG. 6). To assess inhibition, cAMP accumulation was measured in response to TsAbs in the presence of 30 μM compound 52. Indeed, compound 52 reduced TsAb-mediated responses of the different sera (set at 100% for each patient's serum) by 28% to 79% (FIG. 6).

The next data set can be described thus: solubility. Format: physicochemical. The note with it: compared to compound 52.

Entries after “also recorded” stand apart in the source; their conditions may differ.

T2 sequence (P16473 21-764): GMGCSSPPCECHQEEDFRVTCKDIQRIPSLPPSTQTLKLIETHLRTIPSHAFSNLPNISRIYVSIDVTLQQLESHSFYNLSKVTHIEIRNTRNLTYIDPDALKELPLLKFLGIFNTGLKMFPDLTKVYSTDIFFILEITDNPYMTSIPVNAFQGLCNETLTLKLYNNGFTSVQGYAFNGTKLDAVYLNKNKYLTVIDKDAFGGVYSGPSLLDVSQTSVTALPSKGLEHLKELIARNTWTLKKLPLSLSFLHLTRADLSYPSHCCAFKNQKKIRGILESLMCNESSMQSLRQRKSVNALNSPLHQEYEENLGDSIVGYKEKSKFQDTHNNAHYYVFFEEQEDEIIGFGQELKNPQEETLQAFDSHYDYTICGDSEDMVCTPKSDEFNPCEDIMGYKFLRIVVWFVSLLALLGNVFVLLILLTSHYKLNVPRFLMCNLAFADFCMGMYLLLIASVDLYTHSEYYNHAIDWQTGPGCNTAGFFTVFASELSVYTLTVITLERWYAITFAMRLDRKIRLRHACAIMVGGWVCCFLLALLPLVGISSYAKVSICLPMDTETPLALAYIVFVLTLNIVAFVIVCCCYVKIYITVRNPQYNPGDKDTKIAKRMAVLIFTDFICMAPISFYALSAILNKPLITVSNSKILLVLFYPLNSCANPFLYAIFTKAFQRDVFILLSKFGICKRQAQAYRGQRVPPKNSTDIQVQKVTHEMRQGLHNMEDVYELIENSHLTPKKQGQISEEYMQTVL
T1 sequence (P16473 21-764): as above
T3 sequence (P22888 27-699): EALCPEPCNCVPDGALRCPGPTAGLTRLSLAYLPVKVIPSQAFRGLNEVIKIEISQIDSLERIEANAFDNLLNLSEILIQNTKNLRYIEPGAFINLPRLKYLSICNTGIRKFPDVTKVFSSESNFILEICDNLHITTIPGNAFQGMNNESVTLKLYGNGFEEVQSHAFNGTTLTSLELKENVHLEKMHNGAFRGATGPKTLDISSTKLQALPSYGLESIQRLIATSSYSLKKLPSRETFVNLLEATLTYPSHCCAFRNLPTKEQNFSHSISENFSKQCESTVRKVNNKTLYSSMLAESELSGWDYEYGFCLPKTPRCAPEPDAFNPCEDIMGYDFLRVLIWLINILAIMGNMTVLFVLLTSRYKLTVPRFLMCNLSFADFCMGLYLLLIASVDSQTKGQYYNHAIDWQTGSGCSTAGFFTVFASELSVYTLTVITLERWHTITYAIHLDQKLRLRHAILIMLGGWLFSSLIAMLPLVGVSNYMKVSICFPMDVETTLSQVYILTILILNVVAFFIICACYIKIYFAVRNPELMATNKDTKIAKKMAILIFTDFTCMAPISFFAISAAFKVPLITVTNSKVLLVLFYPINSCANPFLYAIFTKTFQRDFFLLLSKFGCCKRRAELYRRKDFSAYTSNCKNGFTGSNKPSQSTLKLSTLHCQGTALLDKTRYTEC
LHCG receptor, sequence (P30730 27-700): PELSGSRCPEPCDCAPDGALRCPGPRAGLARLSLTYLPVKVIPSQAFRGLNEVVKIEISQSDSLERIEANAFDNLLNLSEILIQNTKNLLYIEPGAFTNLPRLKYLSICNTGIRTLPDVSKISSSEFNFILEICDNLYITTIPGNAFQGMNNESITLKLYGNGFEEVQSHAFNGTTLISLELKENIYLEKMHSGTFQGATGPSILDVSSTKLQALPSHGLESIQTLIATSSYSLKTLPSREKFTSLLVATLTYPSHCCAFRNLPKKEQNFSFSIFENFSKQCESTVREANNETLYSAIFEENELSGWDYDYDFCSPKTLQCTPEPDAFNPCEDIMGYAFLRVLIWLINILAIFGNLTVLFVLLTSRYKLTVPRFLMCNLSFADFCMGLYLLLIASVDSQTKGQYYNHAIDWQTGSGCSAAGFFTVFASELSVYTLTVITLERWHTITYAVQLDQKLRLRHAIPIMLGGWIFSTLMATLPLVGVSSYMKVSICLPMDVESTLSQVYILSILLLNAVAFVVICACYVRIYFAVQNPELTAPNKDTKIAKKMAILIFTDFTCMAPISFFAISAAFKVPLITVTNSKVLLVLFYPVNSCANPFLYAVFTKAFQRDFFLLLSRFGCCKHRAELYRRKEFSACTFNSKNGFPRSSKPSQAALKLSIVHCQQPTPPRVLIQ

The IC50 is the concentration that gives 50% inhibition. A lower IC50 goes with greater potency in that assay. Usually EC50 stands for the concentration at which the effect is half-maximal. With `COc1cccc(-c2nc(SC)nc3sc(C(=O)NC(C)(C)C)c(N)c23)c1` [Compound 3, N-tert-butyl-5-amino-4-(3-methoxyphenyl)-2-(methylthio)thieno[2,3-d]pyrimidine-6-carboxamide, reference compound], the “inhibition of TSH stimulation of TSH receptor signaling” value against TSHR [1] is 35%. The compound also came in with an IC50 against TSHR [1] (with EC50 dose of TSH) of 11 µM. The “partial agonism, % of TSH activity at TSHR” value at human TSH receptor stood at 23%. Further, on human TSH receptor (% of maximum response of TSHR to TSH (100 mU/ml), * estimated maximum response at 100 μM compound), the “% Max. Resp. @ TSHR in μM” value was 23.4 ± 3.6%. Also, on human TSH receptor (cAMP), the “agonist activity at TSHR” value is “partial agonist”. The EC50 is 6.5 µM at human TSH receptor (read-out: EC50 (TSHR) in μm [95% C.I.], cAMP, HEK EM 293 cells, dose response 0-100 μM compound, ** estimated EC50, no plateau) and 0.3 µM on human LHCG receptor (read-out: EC50 (LHCGR) in μM [95% C.I.], cAMP, HEK EM 293 cells, dose response 0-100 μM compound). At human LHCG receptor (% of maximum response of LHCGR to LH (1000 ng/ml)), the “% Max. Resp. @ LHCGR in μM” value amounted to 45.8 ± 5.9%. For the same compound, the “agonism at M9” value with TSHR mutant M9 is on record as “full agonist”. In addition, the “in vivo efficacy for LHCG receptor” value at LHCG receptor is recorded as “demonstrated”.
Take `CC/C=C/c1ccc(-c2nc(SC)nc3sc(C(=O)NC(C)(C)C)c(N)c23)cc1` [N-tert-butyl-5-amino-4-(4-((E)-but-1-enyl)phenyl)-2-(methylthio)thieno[2,3-d]pyrimidine-6-carboxamide]: the “inhibition of TSH receptor activation by antibodies (IgG) from Graves' disease sera” value against TSHR [2] was “inhibit”.
As for `C[S+]([O-])c1nc(-c2ccc(/C=C/CS(C)(=O)=O)cc2)c2c(N)c(C(=O)NC(C)(C)C)sc2n1` (stereo not shown) [Compound 52/2], the “antagonistic activity at TSHR in cAMP assay” value at TSHR [1] was “antagonist activity similar to compound 52; also recorded: antagonistic activity”. In addition, the solubility result in “solubility” is listed as “improved solubility”.

The record behind these values is patent US20090203716A1, “Pyrimidine low molecular weight ligands for modulating hormone receptors” (The Government of the United States of America as …, priority 2006, published 2009).
